Reference: US20060019995A1, “2,3-dihydro-4(1H)-pyridone derivatives , method for production thereof and pharmaceutical composition comprising the same” (priority 2002, published 2006)

What was measured:
[1] = tested on: social recognition (olfactory memory); test: Social recognition in the Wistar rat; type: in vivo; conditions: intraperitoneal route, 3 mg/kg, second encounter after 2 hours
Excerpt: Initially described in 1982 by THOR and HOLLOWAY (J. Comp. Physiol., 1982, 96, 1000-1006), the social recognition test has subsequently been proposed by various authors (DANTZER et al., Psychopharmacology, 1987, 91, 363-368; PER10 et al., Psycho-pharmacology, 1989, 97, 262-268) for studying the mnemocognitive effects of new compounds. The test is based on the natural expression of the olfactory memory of the rat and its natural tendency to forget and allows evaluation of memorisation, by recognition of a young congeneric animal, by an adult rat. A young rat (21 days), taken at random, is placed for 5 minutes in the cage housing an adult rat. With the aid of a video device, the experimenter observes the social recognition behaviour of the adult rat and measures its overall duration. The young rat is then removed from the adult rat's cage and is placed in its own cage until the second introduction. The adult rat is then given the compound under test (intraperitoneal route) and, after 2 hours, is again brought into the presence (5 minutes) of the young rat. The social recognition behaviour is then observed again and its duration measured.

[2] = tested on: PBQ-induced abdominal cramps; test: Abdominal contractions induced by phenyl-p-benzoquinone (PBQ) in the NMRI mouse; type: in vivo; conditions: IP, 20 mg/kg, PBQ at t=30 min, cramps counted t=35 to 45 min
Protocol: Intraperitoneal administration of an alcoholic solution of PBQ causes abdominal cramps in the mouse (SIEGMUND et al., Proc. Soc. Exp. Biol., 1957, 95, 729-731). The cramps are characterised by repeated contractions of the abdominal musculature, accompanied by extension of the hind limbs. Most analgesics antagonise these abdominal cramps (COLLIER et al., Brit. J. Pharmacol. Chem., 1968, 32, 295-310). At t=0 min., the animals are weighed and the compound being studied is administered by the IP route. A group of control animals is given the solvent used for the compound. At t=30 min., an alcoholic solution of PBQ (0.2%) is administered by the IP route in a volume of 0.25 ml/mouse. Immediately after administration of the PBQ, the animals are placed in cylinders of plexiglass (L=19.5 cm; I.D.=5 cm). From t=35 min. to t=45 min., the animals' reaction is observed and the experimenter notes the total number of abdominal cramps per animal.

With CC1CC(=O)C=C(c2ccc(Cl)nc2)N1 (stereo not shown) [Example 8, 6-(6-Chloro-3-pyridyl)-2-methyl-2,3-dihydro-4(1H)-pyridone] the “T2 − T1 (s) ± sem, difference between recognition times of the 2 encounters” value [1] was -17.2 ± 4.6 s.

CC1CC(=O)C=C(c2cccc(Cl)c2)N1 (stereo not shown) [Example 6, 6-(3-Chlorophenyl)-2-methyl-2,3-dihydro-4(1H)-pyridone] was tested, and the “Inhibition (%) of the number of abdominal cramps measured in the control animals” value (“Inhibition (%)” below) [2] was 48% and the “T2 − T1 (s) ± sem, difference between recognition times of the 2 encounters” value [1] was -21.4 ± 5.1 s.

In the case of CC1CC(=O)C=C(c2cccs2)N1 (stereo not shown) [Example 2, 2-Methyl-6-(2-thienyl)-2,3-dihydro-4(1H)-pyridone], the “Inhibition (%)” value [2] is reported as 48%.

CC1CC(=O)C=C(c2cccs2)N1C(=O)OC(C)(C)C (stereo not shown) [Example 1, Tert-butyl 2-methyl-4-oxo-6-(2-thienyl)-3,4-dihydro-1(2H)-pyridinecarboxylate] was tested, and the “T2 − T1 (s) ± sem, difference between recognition times of the 2 encounters” value [1] was -17.4 ± 2.5 s.

In the case of CC1CC(=O)C=C(c2ccccc2)N1C(=O)OC(C)(C)C (stereo not shown) [Example 3, Tert-butyl 2-methyl-4-oxo-6-phenyl-3,4-dihydro-1(2H)-pyridine-carboxylate], the “Inhibition (%)” value [2] is reported as 59% and the “T2 − T1 (s) ± sem, difference between recognition times of the 2 encounters” value [1] is reported as -25.3 ± 7.1 s.
